Experimental data taken from US11273154B2, “Azole compounds as ubiquitin-specific protease USP7 inhibitors” (PROGENRA, INC., priority 2017, dated 2022).

Legend:
Format in all cases: cell-based
USP7 = molecular target: T1, USP7 (Homo sapiens, UniProt Q93009); experiment: DUB activity of USP7 immunoprecipitated from pulse-treated Jurkat cells (Ub-EKL assay); details: Jurkat cells pulse treated with 10 μM-0.1 μM for 2 hours, FIG. 4A-4B
T1 construct: followed by DUB activity measurement of immunoprecipitated USP7; endogenous in cells; host or cells: Jurkat cells
T1 sequence (Q93009 whole entry): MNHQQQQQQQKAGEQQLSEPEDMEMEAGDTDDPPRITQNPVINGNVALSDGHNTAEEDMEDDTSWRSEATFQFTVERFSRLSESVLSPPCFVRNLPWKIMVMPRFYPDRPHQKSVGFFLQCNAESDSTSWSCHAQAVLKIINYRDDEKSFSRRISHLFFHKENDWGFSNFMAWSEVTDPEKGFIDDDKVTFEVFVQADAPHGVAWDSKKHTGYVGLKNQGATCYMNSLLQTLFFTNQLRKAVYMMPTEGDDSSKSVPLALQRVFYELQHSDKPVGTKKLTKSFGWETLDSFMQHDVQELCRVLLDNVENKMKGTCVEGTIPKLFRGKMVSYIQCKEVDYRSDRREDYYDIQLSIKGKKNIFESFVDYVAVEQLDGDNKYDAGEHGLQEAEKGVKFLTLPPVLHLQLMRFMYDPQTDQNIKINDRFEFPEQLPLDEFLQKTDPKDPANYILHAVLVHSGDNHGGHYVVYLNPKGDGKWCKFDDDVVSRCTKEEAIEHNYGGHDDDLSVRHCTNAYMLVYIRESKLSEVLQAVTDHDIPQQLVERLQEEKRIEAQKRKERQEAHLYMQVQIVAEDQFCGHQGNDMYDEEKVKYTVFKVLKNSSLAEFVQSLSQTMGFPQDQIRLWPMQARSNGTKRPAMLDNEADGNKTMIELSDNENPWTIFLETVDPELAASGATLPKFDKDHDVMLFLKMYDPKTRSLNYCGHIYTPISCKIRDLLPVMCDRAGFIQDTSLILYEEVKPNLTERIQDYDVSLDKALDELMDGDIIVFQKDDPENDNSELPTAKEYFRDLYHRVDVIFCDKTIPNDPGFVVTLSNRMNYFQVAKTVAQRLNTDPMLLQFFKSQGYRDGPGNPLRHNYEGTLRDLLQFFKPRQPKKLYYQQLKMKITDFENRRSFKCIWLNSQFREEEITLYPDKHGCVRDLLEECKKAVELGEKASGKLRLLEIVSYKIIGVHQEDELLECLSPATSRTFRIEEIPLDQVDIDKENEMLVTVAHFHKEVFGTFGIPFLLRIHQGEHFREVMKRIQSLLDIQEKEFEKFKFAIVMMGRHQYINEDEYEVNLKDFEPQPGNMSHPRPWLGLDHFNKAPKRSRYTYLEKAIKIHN
Method: Jurkat cells were pulse treated with doses ranging from 10 μM-0.1 μM of compound 1 or DMSO as vehicle control for 2 hours followed by DUB activity measurement of immunoprecipitated USP7 (FIG. 4A) as well as total cell lysate (FIG. 4B) using Ub-EKL assay (U.S. Pat. No. 8,680,139). A portion of the immunoprecipitated USP7 is separated on 10% SDS-PAGE and immunoblotted with anti-USP7 antibody to detect the level of USP7 protein (shown at the top of graphs in FIG. 4A).

DNMT1, UHRF1 and HDM2 = experiment: Immunoblot of USP7 oncogenic substrate levels in Jurkat cells; details: 20 μg total cell lysate, FIG. 5
Method: FIG. 5 graphically illustrates a decrease in USP7 oncogenic substrates DNMT1, UHRF1 and HDM2 levels in Jurkat cells treated with the USP7i compound 1. 20 μg total cell lysates from each sample was separated on 10% SDS-PAGE and immunoblotted with antibodies against DNMT1, UHRF1, HDM2 and Actin (loading control).

Murine Tregs = experiment: Treg suppression assay with CFSE labeled T effector cells (FACS); details: Murine Tregs pre-treated for 2 hours, washed, incubated with CFSE labeled T effector cells for 3 days; FIG. 6
Method: Murine Tregs were pre-treated with compound 1 for 2 hours, washed and incubated with carboxyfluorescein succinimidyl ester (CFSE) labeled T effector cells at varying concentrations for 3 days. T effector cell proliferation was monitored using FACS analysis. Percentage proliferation is plotted using Graphpad prism.

mode of USP7 inhibition (DUB activity of immunoprecipitated USP7 after pulse treatment) (USP7): irreversible inhibitors
SMILES: O=C(Nc1ccc2c(c1)S(=O)(=O)C=C2)c1nnc(Sc2c(Cl)cncc2Cl)s1 [compound 1, 5-((3,5-dichloropyridin-4-yl)thio)-N-(1,1-dioxido-2,3-benzo[b]thiophen-6-yl)-1,3,4-thiadiazole-2-carboxamide]
USP7 oncogenic substrates DNMT1, UHRF1 and HDM2 levels (DNMT1, UHRF1 and HDM2): decrease
Treg functions (T effector cell proliferation) (Murine Tregs): inhibition of Treg functions
